Results: publication PMC7648750, “In vitro and in vivo BNCT investigations using a carborane containing sulfonamide targeting CAIX epitopes on malignant pleural mesothelioma and breast cancer cells” (Scientific Reports, 2020)

Experiments:
ZL34 cells = experiment: Cell uptake of boron (ICP-MS); assay type: cell-based, human; details: ZL34, 187.5 µM CA-SF in culture medium, 24 h, 37 °C
Experimental: (§1) For the in vitro uptake experiments, 6 × 10^5 MCF7, 4.5 × 10^5 ZL34 and 2 × 10^5 AB22 were seeded in 6 cm of diameter dishes. After 24 h for MCF7 and ZL34 and after 72 h for AB22, the cells were incubated for 24 h with increasing concentration of CA-SF. All the incubations were performed in condition of normoxia at 37 °C, 5% CO2. At the end of the incubation, cells were washed three times with 3 ml ice-cold PBS and detached with 0.05% trypsin and 0.02% EDTA. Finally, all cell samples were transferred in falcon tubes and sonicated at 30% of power for 30 s in ice. The boron content of each cell sample lysates was determined by ICP-MS technique (see below). The milligrams of proteins, proportional to the number of cells, of each cell sample lysate, was evaluated by the Bradford assay (Biorad) using bovine serum albumin as a standard.
(§2) Boron content from cell samples, mice organs, plasma and tumours were determined using inductively coupled plasma mass spectrometry (ICP-MS) (Element-2; Thermo-Finnigan, Rodano (MI), Italy).
(§3) Sample digestion was performed using a high performance Microwave Digestion System (ETHOS UP Milestone, Bergamo, Italy) after the addition of concentrated HNO3 (70%) to cell lysates (1:1), in a final volume of 0.4 mL. […] The amounts of boron µg /g tissue were thus calculated considering that 1 g of tissue contains 1 × 10^9 cells.

MCF7 cells = experiment: Cell uptake of boron (ICP-MS); assay type: cell-based, human; details: MCF7, 72 µM CA-SF in culture medium, 24 h, 37 °C
Experimental: as §1, §2, §3

[1] = Mice weight monitoring after treatment; assay type: in vivo, Balb/c mice
Experimental: CA-SF treatment on mesothelioma bearing mice, were performed in the thermal column of the TRIGA Mark II reactor at Pavia University (Italy) using the same protocol reported in reference^35. The irradiation facility was previously designed for TAOrMINA treatment developed to treat multiple liver metastases with BNCT. The chamber used to perform animal irradiation has a cross section of 40 × 20 cm^2, a length of 1 m and it starts at about 1.3 m from the center of the reactor core. The animal irradiation position has been characterised in terms of neutron spectrum and background photon dose[43]. To carry out neutron irradiation animals are positioned at the end of this chamber where the in air thermal neutron flux is approximately 1.2 × 10^10 n/cm^2s, operating the reactor at its maximum power. In this way the thermal neutron flux is maximised and the irradiation time is kept as short as possible (never longer than 15 min). The first mice group (irradiated and treated group, n = 5) received three doses of CA-SF/poli β cyclodextrin (37.5 mg boron/kg dose) prepared as described before. […]
The weight of IRR, CA-SF and CA-SF + IRR groups was monitored till the end of the experiment (Supplementary Figure S1).

AB22 mesothelioma tumour = experiment: Tumour growth by MRI in AB22 mesothelioma tumour bearing mice (CA-SF with or without BNCT); assay type: in vivo, Balb/c mice; details: three i.v. doses 37.5 mg/kg of boron at day 0, 2, 6, followed 25 days
Experimental: CA-SF treatment on mesothelioma bearing mice, were performed in the thermal column of the TRIGA Mark II reactor at Pavia University (Italy) using the same protocol reported in reference^35. The irradiation facility was previously designed for TAOrMINA treatment developed to treat multiple liver metastases with BNCT. The chamber used to perform animal irradiation has a cross section of 40 × 20 cm^2, a length of 1 m and it starts at about 1.3 m from the center of the reactor core. The animal irradiation position has been characterised in terms of neutron spectrum and background photon dose[43]. […]
The T2-weighted MR images were acquired at 1 T with an Aspect M2-High Performance MRI System (Aspect Magnet Technologies Ltd., Netanya, Israel) consisting of a NdFeB magnet, equipped with a 35 mm solenoid Tx/Tr coil of inner diameter 35 mm. […] The tumour volume (mm^3) was calculated in the region of interest (ROI) manually drawn on the whole tumour by ITK-SNAP software. Tumour volume enhancement (%) was calculated according to the following equation: ((tumour volume (time = n) – tumour volume (time = 0)/tumour volume (time = 0)) × 100, where time = 0 indicates the day of the first CA-SF treatment and time = n indicates the days when mice were acquired by MRI.

[2] = Solubility in aqueous media; assay type: physicochemical

boron loaded into the target cells (ZL34 cells): 90 µg/g | boron loaded into the target cells (MCF7 cells): 60 µg/g | loss of initial weight ([1]; treated and irradiated mice, CA-SF three doses + 15 min irradiation 250 kW): 10% | weight decrease at the end of the study ([1]; treated mice (CA-SF, not irradiated)): 5% | solubility in aqueous media [2]: low
Substance: 1-Sulfonamidomethyl-o-carborane [CA-SF]
tumour growth (MRI tumour volume) vs vehicle control mice (AB22 mesothelioma tumour; CA-SF alone, not irradiated): significantly inhibits mice tumour growth | tumour growth (MRI tumour volume), CA-SF + BNCT (AB22 mesothelioma tumour; neutron irradiation day 3, 15 min, 250 kW): dramatic reduction of the mass of tumours
